This passage reports IC50 results from patent US9278963B2, “Pyrimidine hydroxy amide compounds as histone deacetylase inhibitors” (Acetylon Pharmaceuticals, Inc., priority 2013, dated 2016).

As a reminder, the IC50 is the midpoint of a concentration-inhibition curve. Read a low IC50 as greater potency in that assay.

Type in all cases: biochemical
One assay deals with HDAC1 (Homo sapiens (Human), UniProt Q13547). Briefly: HDAC enzyme assay, HDAC1. The procedure:
(§1) Compounds for testing were diluted in DMSO to 50 fold the final concentration and a ten point three fold dilution series was made. The compounds were diluted in assay buffer (50 mM HEPES, pH 7.4, 100 mM KCl, 0.001% Tween-20, 0.05% BSA, 20 μM TCEP) to 6 fold their final concentration. The HDAC enzymes (purchased from BPS Biosciences) were diluted to 1.5 fold their final concentration in assay buffer. The tripeptide substrate and trypsin at 0.05 μM final concentration were diluted in assay buffer at 6 fold their final concentration. The final enzyme concentrations used in these assays were 3.3 ng/ml (HDAC1), 0.2 ng/ml (HDAC2), 0.08 ng/ml (HDAC3) and 2 ng/ml (HDAC6). The final substrate concentrations used were 16 μM (HDAC1), 10 μM (HDAC2), 17 μM (HDAC3) and 14 μM (HDAC6).
(§2) Five μl of compounds and 20 μl of enzyme were added to wells of a black, opaque 384 well plate in duplicate. Enzyme and compound were incubated together at room temperature for 10 minutes. Five μ1 of substrate was added to each well, the plate was shaken for 60 seconds and placed into a Victor 2 microtiter plate reader. The development of fluorescence was monitored for 60 min and the linear rate of the reaction was calculated. The IC50 was determined using Graph Pad Prism by a four parameter curve fit.

Another assay has as its target HDAC2 (Homo sapiens (Human), UniProt Q92769). The experiment in a line: HDAC enzyme assay, HDAC2. The procedure: as §1, §2
A further assay deals with HDAC3 (Homo sapiens (Human), UniProt O15379). The experiment in a line: HDAC enzyme assay, HDAC3. The procedure:
Compounds for testing were diluted in DMSO to 50 fold the final concentration and a ten point three fold dilution series was made. The compounds were diluted in assay buffer (50 mM HEPES, pH 7.4, 100 mM KCl, 0.001% Tween-20, 0.05% BSA, 20 μM TCEP) to 6 fold their final concentration. […] The tripeptide substrate and trypsin at 0.05 μM final concentration were diluted in assay buffer at 6 fold their final concentration. The final enzyme concentrations used in these assays were 3.3 ng/ml (HDAC1), 0.2 ng/ml (HDAC2), 0.08 ng/ml (HDAC3) and 2 ng/ml (HDAC6).
as §2

The target in a further assay is HDAC6 (Homo sapiens (Human), UniProt Q9UBN7). Briefly: HDAC enzyme assay, HDAC6. The procedure: as §1
as §2, with “fit. The IC50 values obtained for several of the compounds of this invention are found in Table 1.” for “fit.”

HDAC3, sequence (O15379 whole entry): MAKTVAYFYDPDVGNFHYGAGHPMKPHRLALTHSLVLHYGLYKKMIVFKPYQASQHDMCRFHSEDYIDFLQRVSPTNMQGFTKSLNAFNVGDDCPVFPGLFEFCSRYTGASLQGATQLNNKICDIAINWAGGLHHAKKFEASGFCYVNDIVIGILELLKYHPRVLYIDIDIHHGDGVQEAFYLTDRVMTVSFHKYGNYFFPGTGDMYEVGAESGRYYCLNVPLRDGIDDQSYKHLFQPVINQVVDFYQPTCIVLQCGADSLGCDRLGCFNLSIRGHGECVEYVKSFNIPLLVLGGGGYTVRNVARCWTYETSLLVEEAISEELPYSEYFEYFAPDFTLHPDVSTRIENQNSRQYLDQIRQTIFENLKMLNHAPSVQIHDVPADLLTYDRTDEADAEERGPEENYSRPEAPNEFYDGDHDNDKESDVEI
HDAC3, sequence (Q9Y618 395-489 partner): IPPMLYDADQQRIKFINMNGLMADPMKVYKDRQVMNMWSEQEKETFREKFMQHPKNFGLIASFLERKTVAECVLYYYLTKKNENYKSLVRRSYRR
HDAC6, sequence (Q9UBN7 whole entry): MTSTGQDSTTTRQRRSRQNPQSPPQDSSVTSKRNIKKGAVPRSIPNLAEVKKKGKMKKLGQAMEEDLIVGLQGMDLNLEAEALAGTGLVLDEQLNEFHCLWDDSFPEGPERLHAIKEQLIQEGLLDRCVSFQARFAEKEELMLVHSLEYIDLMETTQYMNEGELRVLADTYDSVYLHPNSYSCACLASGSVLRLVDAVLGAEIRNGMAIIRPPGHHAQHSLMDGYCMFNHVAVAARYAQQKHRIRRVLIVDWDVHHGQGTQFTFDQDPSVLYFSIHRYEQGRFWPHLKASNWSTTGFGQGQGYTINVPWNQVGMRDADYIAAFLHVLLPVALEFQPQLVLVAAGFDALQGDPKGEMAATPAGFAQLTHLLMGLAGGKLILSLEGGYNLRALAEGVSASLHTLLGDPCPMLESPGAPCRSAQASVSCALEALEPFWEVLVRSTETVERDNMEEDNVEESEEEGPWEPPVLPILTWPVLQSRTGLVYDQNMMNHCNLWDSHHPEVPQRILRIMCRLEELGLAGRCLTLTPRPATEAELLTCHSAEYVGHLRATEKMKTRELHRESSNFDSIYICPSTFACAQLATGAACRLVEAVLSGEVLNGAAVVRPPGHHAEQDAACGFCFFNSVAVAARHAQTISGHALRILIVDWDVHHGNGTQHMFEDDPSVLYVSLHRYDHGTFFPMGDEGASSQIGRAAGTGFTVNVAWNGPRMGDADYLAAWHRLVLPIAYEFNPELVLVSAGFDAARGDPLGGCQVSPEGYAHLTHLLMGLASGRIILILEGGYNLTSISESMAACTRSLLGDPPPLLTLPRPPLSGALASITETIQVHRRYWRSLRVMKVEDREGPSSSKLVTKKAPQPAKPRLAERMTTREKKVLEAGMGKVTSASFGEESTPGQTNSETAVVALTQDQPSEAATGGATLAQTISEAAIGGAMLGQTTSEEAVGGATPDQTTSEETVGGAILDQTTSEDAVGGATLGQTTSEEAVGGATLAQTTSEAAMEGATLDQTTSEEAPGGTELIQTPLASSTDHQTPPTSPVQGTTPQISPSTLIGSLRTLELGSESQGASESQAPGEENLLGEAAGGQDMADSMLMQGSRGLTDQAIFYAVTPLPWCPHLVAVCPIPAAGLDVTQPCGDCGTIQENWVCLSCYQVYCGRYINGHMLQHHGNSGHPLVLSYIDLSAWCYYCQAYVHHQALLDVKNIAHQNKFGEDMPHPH
HDAC1, sequence (Q13547 whole entry): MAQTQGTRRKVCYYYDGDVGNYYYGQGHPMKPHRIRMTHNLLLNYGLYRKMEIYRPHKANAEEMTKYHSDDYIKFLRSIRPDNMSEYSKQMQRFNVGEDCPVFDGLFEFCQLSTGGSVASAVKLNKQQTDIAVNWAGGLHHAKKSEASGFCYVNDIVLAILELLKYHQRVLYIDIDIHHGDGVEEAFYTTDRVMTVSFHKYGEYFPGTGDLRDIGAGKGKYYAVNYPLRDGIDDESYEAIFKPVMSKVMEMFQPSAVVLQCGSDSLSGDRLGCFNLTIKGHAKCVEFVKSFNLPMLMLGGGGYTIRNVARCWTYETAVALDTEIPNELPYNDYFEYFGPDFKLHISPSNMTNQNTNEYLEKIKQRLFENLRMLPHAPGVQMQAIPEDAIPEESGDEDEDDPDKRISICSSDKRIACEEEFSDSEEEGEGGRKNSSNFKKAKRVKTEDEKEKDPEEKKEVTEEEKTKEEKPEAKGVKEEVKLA
HDAC2, sequence (Q92769 whole entry): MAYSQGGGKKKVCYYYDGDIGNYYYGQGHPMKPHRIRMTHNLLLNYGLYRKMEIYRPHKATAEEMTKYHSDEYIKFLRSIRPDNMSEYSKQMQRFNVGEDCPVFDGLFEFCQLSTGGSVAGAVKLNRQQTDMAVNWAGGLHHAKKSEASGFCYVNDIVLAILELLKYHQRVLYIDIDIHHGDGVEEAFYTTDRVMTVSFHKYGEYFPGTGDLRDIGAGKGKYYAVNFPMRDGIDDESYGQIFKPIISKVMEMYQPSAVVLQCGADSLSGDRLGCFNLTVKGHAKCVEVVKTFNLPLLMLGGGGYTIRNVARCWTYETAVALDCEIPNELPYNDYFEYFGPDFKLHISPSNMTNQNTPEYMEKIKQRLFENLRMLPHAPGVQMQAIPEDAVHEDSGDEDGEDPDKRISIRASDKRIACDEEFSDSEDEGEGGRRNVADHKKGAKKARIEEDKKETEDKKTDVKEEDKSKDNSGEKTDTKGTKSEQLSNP

For the compound `O=C(NO)c1cnc(NC2(c3ccccc3)CCN(C(=O)Nc3ccccc3F)CC2)nc1` [Compound 010, 2-((1-((2-fluorophenyl)carbamoyl)-4-phenylpiperidin-4-yl)amino)-N-hydroxypyrimidine-5-carboxamide], the IC50 on HDAC1 was found to be 18 nM; against HDAC2 it was 27 nM; at HDAC3 it was 824 nM; against HDAC6 it was 1.7 nM.
Taken in the same sequence, the figures for `O=C(NO)c1cnc(NC2(c3ccccc3)CCN(S(=O)(=O)c3cccc(F)c3)CC2)nc1` [Compound 018, 2-((1-((3-fluorophenyl)sulfonyl)-4-phenylpiperidin-4-yl)amino)-N-hydroxypyrimidine-5-carboxamide] were 551 nM, 644 nM, 2480 nM and 5.1 nM.
For `O=C(NO)c1cnc(NC2(c3ccccc3)CCN(C(=O)Nc3c(F)cccc3F)CC2)nc1` [Compound 024, 2-((1-((2,6-difluorophenyl)carbamoyl)-4-phenylpiperidin-4-yl)amino)-N-hydroxypyrimidine-5-carboxamide] the same measures were 22 nM, 22 nM, 761 nM and 3.7 nM.
Taken in the same sequence, the figures for `CC(C)[C@@H](C(=O)N1CCC(Nc2ncc(C(=O)NO)cn2)(c2ccccc2)CC1)c1ccccc1` (stereo in doubt) [Compound 025, N-hydroxy-2-((1-(3-methyl-2-phenylbutanoyl)-4-phenylpiperidin-4-yl)amino)pyrimidine-5-carboxamide] were 20 nM, 18 nM, 84 nM and 13 nM.
Consider `CC(C)C[C@@H](C(=O)N1CCC(Nc2ncc(C(=O)NO)cn2)(c2ccccc2)CC1)c1ccccc1` (stereo in doubt) [Compound 030, N-hydroxy-2-((1-(4-methyl-2-phenylpentanoyl)-4-phenylpiperidin-4-yl)amino)pyrimidine-5-carboxamide], for which the 50% inhibitory concentration (IC50) against HDAC1 came to 23 nM; against HDAC2, 22 nM; against HDAC3, 114 nM; at HDAC6, 12 nM.
Consider `CC(C)C1(Nc2ncc(C(=O)NO)cn2)CCN(C(=O)OCc2ccccc2)CC1` [Compound 007, benzyl 4-((5-(hydroxycarbamoyl)pyrimidin-2-yl)amino)-4-isopropylpiperidine-1-carboxylate], for which the concentration for half-maximal inhibition (IC50) came out at 119 nM against HDAC1, 121 nM against HDAC2, 879 nM against HDAC3 and 5.1 nM against HDAC6.
For `Cc1ccc(S(=O)(=O)N2CCC(Nc3ncc(C(=O)NO)cn3)(c3ccccc3)CC2)cc1` [Compound 021, N-hydroxy-2-((4-phenyl-1-tosylpiperidin-4-yl)amino)pyrimidine-5-carboxamide] the same measures were 570 nM, 642 nM, 2510 nM and 4.5 nM.
On to `O=C(NO)c1cnc(NC2(c3ccccc3)CCN(C(=O)Nc3cccc(F)c3)CC2)nc1` [Compound 013, 2-((1-((3-fluorophenyl)carbamoyl)-4-phenylpiperidin-4-yl)amino)-N-hydroxypyrimidine-5-carboxamide], for which the IC50 is 50 nM against HDAC1, 74 nM at HDAC2, 1080 nM against HDAC3 and 2.5 nM against HDAC6.
Taken in the same sequence, the figures for `CC(=O)N1CCC(Nc2ncc(C(=O)NO)cn2)(c2ccccc2)CC1` [Compound 003, 2-((1-acetyl-4-phenylpiperidin-4-yl)amino)-N-hydroxypyrimidine-5-carboxamide] were 346 nM, 254 nM, 840 nM and 1.6 nM.
Taken in the same sequence, the figures for `O=C(NO)c1cnc(NC2(c3ccccc3)CCN(S(=O)(=O)c3ccc(C(F)(F)F)cc3)CC2)nc1` [Compound 022, N-hydroxy-2-((4-phenyl-1-((4-(trifluoromethyl)phenyl)sulfonyl)piperidin-4-yl)amino)pyrimidine-5-carboxamide] were 704 nM, 782 nM, 2700 nM and 7.3 nM.
For `O=C(NO)c1cnc(NC2(c3ccccc3)CCN(C(=S)Nc3ccccc3)CC2)nc1` [Compound 017, N-hydroxy-2-((4-phenyl-1-(phenylcarbamothioyl)piperidin-4-yl)amino)pyrimidine-5-carboxamide] the same measures were 5.9 nM, 5.2 nM, 111 nM and 2.4 nM.
For `O=C(NO)c1cnc(NC2(c3ccccc3)CCN(S(=O)(=O)c3ccccc3)CC2)nc1` [Compound 023, N-hydroxy-2-((4-phenyl-1-(phenylsulfonyl)piperidin-4-yl)amino)pyrimidine-5-carboxamide], the IC50 against HDAC1 is 844 nM; at HDAC2, 829 nM; on HDAC3, 3540 nM; on HDAC6, 4.6 nM.
Taken in the same sequence, the figures for `CCOC(=O)N1CCC(Nc2ncc(C(=O)NO)cn2)(c2ccccc2)CC1` [Compound 004, ethyl 4-((5-(hydroxycarbamoyl)pyrimidin-2-yl)amino)-4-phenylpiperidine-1-carboxylate] were 275 nM, 321 nM, 1000 nM and 2.9 nM.
For `O=C(NO)c1cnc(NC2(c3ccccc3)CCN(S(=O)(=O)c3ccc(Cl)cc3)CC2)nc1` [Compound 019, 2-((1-((4-chlorophenyl)sulfonyl)-4-phenylpiperidin-4-yl)amino)-N-hydroxypyrimidine-5-carboxamide] the same measures were 854 nM, 987 nM, 3190 nM and 5 nM.
For `O=C(NO)c1cnc(NC2(c3ccccc3)CCN(C(=O)OCc3ccccc3)CC2)nc1` [Compound 002, benzyl 4-((5-(hydroxycarbamoyl)pyrimidin-2-yl)amino)-4-phenylpiperidine-1-carboxylate], the IC50 against HDAC1 was 1010 nM; at HDAC2 it was 983 nM; against HDAC3 it was 1640 nM; on HDAC6, 2.6 nM.
For `COc1ccc(NC(=O)N2CCC(Nc3ncc(C(=O)NO)cn3)(c3ccccc3)CC2)cc1` [Compound 008, N-hydroxy-2-((1-((4-methoxyphenyl)carbamoyl)-4-phenylpiperidin-4-yl)amino)pyrimidine-5-carboxamide] the same measures were 21 nM, 24 nM, 546 nM and 1.5 nM.
Turning to `O=C(NO)c1cnc(NC2(c3ccccc3)CCN(C(=O)Cc3cc4ccccc4[nH]3)CC2)nc1` [Compound 031, 2-((1-(2-(1H-indol-2-yl)acetyl)-4-phenylpiperidin-4-yl)amino)-N-hydroxypyrimidine-5-carboxamide], the IC50 against HDAC1 worked out at 10 nM; on HDAC2, 9 nM; against HDAC3, 42 nM; against HDAC6, 5 nM.
For `O=C(NO)c1cnc(NC2(c3ccccc3)CCN(c3ccccc3)CC2)nc1` [Compound 009, 2-((1,4-diphenylpiperidin-4-yl)amino)-N-hydroxypyrimidine-5-carboxamide] the same measures were 356 nM, 380 nM, 1780 nM and 2.1 nM.
